Fold induction data for 21 compounds are collected here from patent US10766869B2, “Triazoles for the treatment of demyelinating dieases” (Vertex Pharmaceuticals Incorporated, priority 2015, dated 2020).

The test system of this assay is primary rat mixed cortical cells. The assay is described as follows: In vitro myelination assay (MBP positive myelin strands, fold myelin pixels above background). The conditions noted are these: Rattus norvegicus, read-out: Fold myelin pixels above background relative to baseline of no added compound; for fold induction at 1 µM: 1.0 μM compound; for fold induction at 10 µM: 10.0 μM compound. The class given is cell-based. Put shortly: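 Fourteen-day treatment of primary P1 rat mixed cortical cultures, re-dosed at days 6 and 10, at 1.0 μM and 10.0 μM. MBP immunofluorescence was imaged at 10× and myelin strands quantified by software, normalised to untreated wells as fold above background.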

Each structure is given as a SMILES string.

For the compound `Cc1cc(Nc2ncn(-c3cc(F)cc(F)c3)n2)cc(OCCn2cccn2)c1` [Compound 832, 1-(3,5-difluorophenyl)-N-[3-methyl-5-(2-pyrazol-1-ylethoxy)phenyl]-1,2,4-triazol-3-amine], the fold induction at 1 µM was in the range of 10 to 100 and the fold induction at 10 µM fell in the range of 10 to 100.

For the compound `Cc1cc(Nc2ncn(-c3cccc(C(F)F)c3)n2)cc(N2CCN(C3COC3)CC2)c1` [Compound 833, 1-[3-(difluoromethyl)phenyl]-N-[3-methyl-5-[4-(oxetan-3-yl)piperazin-1-yl]phenyl]-1,2,4-triazol-3-amine], the fold induction at 1 µM lay in the range of 1 to 10 and the fold induction at 10 µM was not above 1.

Turning to `Cc1cc(CN2CCN(C3COC3)CC2)c(F)c(Nc2ncn(-c3ccc(F)c(F)c3)n2)c1` [Compound 834, 1-(3,4-difluorophenyl)-N-[2-fluoro-5-methyl-3-[[4-(oxetan-3-yl)piperazin-1-yl]methyl]phenyl]-1,2,4-triazol-3-amine], the fold induction at 1 µM was 1 to 10 and the fold induction at 10 µM lay within 1 to 10.

As for `N#Cc1cc(Nc2ncn(-c3cc(F)cc(F)c3)n2)cc(N2CCOCC2)c1` [Compound 835, 3-[[1-(3,5-difluorophenyl)-1,2,4-triazol-3-yl]amino]-5-morpholino-benzonitrile], the fold induction at 1 µM was in the range of 1 to 10 and the fold induction at 10 µM fell in the range of 10 to 100.

With `Cc1cc(Nc2ncn(-c3ccc(C)c(F)c3)n2)cc(N2CCN(C3COC3)CC2)c1` [Compound 836, 1-(3-fluoro-4-methyl-phenyl)-N-[3-methyl-5-[4-(oxetan-3-yl)piperazin-1-yl]phenyl]-1,2,4-triazol-3-amine], the fold induction at 1 µM lay within 1 to 10 and the fold induction at 10 µM lay in the range of 1 to 10.

As to `Cc1cc(Nc2ncn(-c3cccc(C(F)(F)F)c3)n2)nc(N2CCOCC2)c1` [Compound 837, 4-methyl-6-morpholino-N-[1-[3-(trifluoromethyl)phenyl]-1,2,4-triazol-3-yl]pyridin-2-amine], the fold induction at 1 µM lay within 1 to 10 and the fold induction at 10 µM is 10 to 100.

Consider `Cc1cc(Nc2ncn(-c3ccccc3)n2)cc(Nc2ncco2)c1` [Compound 838, 5-methyl-N1-oxazol-2-yl-N3-(1-phenyl-1,2,4-triazol-3-yl)benzene-1,3-diamine], for which the fold induction at 1 µM was not above 1 and the fold induction at 10 µM is not above 1.

In the case of `COCC1CCN(c2cc(C(F)(F)F)cc(Nc3ncn(-c4cc(F)cc(F)c4)n3)n2)CC1` [Compound 839, N-[1-(3,5-difluorophenyl)-1,2,4-triazol-3-yl]-6-[4-(methoxymethyl)-1-piperidyl]-4-(trifluoromethyl)pyridin-2-amine], the fold induction at 1 µM is 1 to 10 and the fold induction at 10 µM was not above 1.

Consider `Cc1cc(CN2CCN(C3COC3)CC2)cc(Nc2ncn(-c3ccc(F)c(F)c3)n2)c1` [Compound 840, 1-(3,4-difluorophenyl)-N-[3-methyl-5-[[4-(oxetan-3-yl)piperazin-1-yl]methyl]phenyl]-1,2,4-triazol-3-amine], for which the fold induction at 1 µM lay within 10 to 100 and the fold induction at 10 µM was in the range of 10 to 100.

Regarding `COc1ccc(-n2cnc(Nc3cc(C)cc(N4CC(N5CCOCC5)C4)c3)n2)cc1` [Compound 841, 1-(4-methoxyphenyl)-N-[3-methyl-5-(3-morpholinoazetidin-1-yl)phenyl]-1,2,4-triazol-3-amine], the fold induction at 1 µM was 1 to 10 and the fold induction at 10 µM fell in the range of 10 to 100.

Regarding `N#Cc1cc(Nc2ncn(-c3cccnc3)n2)cc(N2CCN(C3COC3)CC2)c1` [Compound 842, 3-[4-(oxetan-3-yl)piperazin-1-yl]-5-[[1-(3-pyridyl)-1,2,4-triazol-3-yl]amino]benzonitrile], the fold induction at 1 µM was 1 to 10 and the fold induction at 10 µM was not above 1.

For the compound `Cc1cc(Nc2ncn(-c3cc(F)cc(F)c3)n2)nc(N2CC3CCOC3C2)c1` (stereo not drawn) [Compound 843, 6-(2,3,3a,4,6,6a-hexahydrofuro[2,3-c]pyrrol-5-yl)-N-[1-(3,5-difluorophenyl)-1,2,4-triazol-3-yl]-4-methyl-pyridin-2-amine], the fold induction at 1 µM was 1 to 10 and the fold induction at 10 µM fell in the range of 1 to 10.

As to `Cc1cc(Nc2ncn(-c3ccc(F)c(F)c3)n2)cc(OCCN2CCOCC2)c1` [Compound 845, 1-(3,4-difluorophenyl)-N-[3-methyl-5-(2-morpholinoethoxy)phenyl]-1,2,4-triazol-3-amine], the fold induction at 1 µM lay in the range of 10 to 100 and the fold induction at 10 µM was in the range of 1 to 10.

Consider `Cc1cc(Nc2ncn(-c3cnccn3)n2)cc(C2(C)CN(C)C(=O)O2)c1` (stereo not drawn) [Compound 846, 3,5-dimethyl-5-[3-methyl-5-[(1-pyrazin-2-yl-1,2,4-triazol-3-yl)amino]phenyl]oxazolidin-2-one], for which the fold induction at 1 µM lay within 10 to 100 and the fold induction at 10 µM lay within 1 to 10.

With `Fc1cc(F)cc(-n2cnc(Nc3cc(N4CCN(C5COC5)CC4)cc(F)n3)n2)c1` [Compound 847, N-[1-(3,5-difluorophenyl)-1,2,4-triazol-3-yl]-6-fluoro-4-[4-(oxetan-3-yl)piperazin-1-yl]pyridin-2-amine], the fold induction at 1 µM lay in the range of 1 to 10 and the fold induction at 10 µM lay in the range of 1 to 10.

In the case of `Cc1cc(Nc2ncn(-c3cccc(C(F)F)c3)n2)nc(N2CCN(C3COC3)CC2)c1` [Compound 848, N-[1-[3-(difluoromethyl)phenyl]-1,2,4-triazol-3-yl]-4-methyl-6-[4-(oxetan-3-yl)piperazin-1-yl]pyridin-2-amine], the fold induction at 1 µM was 10 to 100 and the fold induction at 10 µM was 10 to 100.

In the case of `CC1(N2CCN(c3cc(C(F)F)cc(Nc4ncn(-c5ccc(F)c(F)c5)n4)n3)CC2)COC1` [Compound 849, 4-(difluoromethyl)-N-[1-(3,4-difluorophenyl)-1,2,4-triazol-3-yl]-6-[4-(3-methyloxetan-3-yl)piperazin-1-yl]pyridin-2-amine], the fold induction at 1 µM was in the range of 10 to 100 and the fold induction at 10 µM was 10 to 100.

As for `COCCCN1CCN(c2cc(C)cc(Nc3ncn(-c4cc(F)cc(F)c4)n3)c2)CC1` [Compound 850, 1-(3,5-difluorophenyl)-N-[3-[4-(3-methoxypropyl)piperazin-1-yl]-5-methyl-phenyl]-1,2,4-triazol-3-amine], the fold induction at 1 µM lay within 10 to 100 and the fold induction at 10 µM was not above 1.

In the case of `Cc1cc(Nc2ncn(-c3cc(F)cc(F)c3)n2)cc(N2CCC3(CCCO3)CC2)c1` [Compound 851, 1-(3,5-difluorophenyl)-N-[3-methyl-5-(1-oxa-8-azaspiro[4.5]decan-8-yl)phenyl]-1,2,4-triazol-3-amine], the fold induction at 1 µM is 1 to 10 and the fold induction at 10 µM lay within 10 to 100.

For the compound `Cc1cc(Nc2ncn(-c3cc(F)cc(NCCO)c3)n2)cc(N2CC(F)C2)c1` [Compound 852, 2-[3-fluoro-5-[3-[3-(3-fluoroazetidin-1-yl)-5-methyl-anilino]-1,2,4-triazol-1-yl]anilino]ethanol], the fold induction at 1 µM fell in the range of 1 to 10 and the fold induction at 10 µM was not above 1.

Take `N#Cc1cc(Nc2ncn(-c3cc(F)cc(F)c3)n2)nc(N2CCN(C3COC3)CC2)c1` [Compound 853, 2-[[1-(3,5-difluorophenyl)-1,2,4-triazol-3-yl]amino]-6-[4-(oxetan-3-yl)piperazin-1-yl]pyridine-4-carbonitrile]: the fold induction at 1 µM lay within 1 to 10 and the fold induction at 10 µM was in the range of 10 to 100.
